Test system: 171881-019-R-J1-PDC complex spheroid growth, % test/control
Test: Anticancer human tumor 171881-019-R-J1-PDC patient-derived invasive breast carcinoma cell line growth inhibition [Asc]
Settings: for IC50: curve of first compound; for viability, T/C: stronger effect = lower value
How it was run: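 Stromal components (HUVEC and hMSC) are co-assembled with the cancer cells into multicellular spheroids. Drugs are then added singly or paired, at concentrations falling by half-log increments from a clinically achievable maximum, capped at 10 microM without known Cmax.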

[1] = second compound 0.01 µM, first compound 0.0316 µM
[2] = second compound 0.01 µM, first compound 0.1 µM
[3] = second compound 0.01 µM, first compound 0.316 µM
[4] = second compound 0.01 µM, first compound 1 µM
[5] = second compound 0.0316 µM, first compound 0.0316 µM
[6] = second compound 0.0316 µM, first compound 0.1 µM
[7] = second compound 0.0316 µM, first compound 0.316 µM
[8] = second compound 0.0316 µM, first compound 1 µM
[9] = second compound 0.1 µM, first compound 0.0316 µM
[10] = second compound 0.1 µM, first compound 0.1 µM
[11] = second compound 0.1 µM, first compound 0.316 µM
[12] = second compound 0.1 µM, first compound 1 µM
[13] = second compound 0.316 µM, first compound 0.0316 µM
[14] = second compound 0.316 µM, first compound 0.1 µM
[15] = second compound 0.316 µM, first compound 0.316 µM
[16] = second compound 0.316 µM, first compound 1 µM
[17] = second compound 1 µM, first compound 0.0316 µM
[18] = second compound 1 µM, first compound 0.1 µM
[19] = second compound 1 µM, first compound 0.316 µM
[20] = second compound 1 µM, first compound 1 µM
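Throughout, for viability, T/C: spheroids exposed to compounds for 7 days.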

| Compound | IC50 (second compound 0.01 µM) [nM] | IC50 (second compound 0.0316 µM) [nM] | IC50 (second compound 0.1 µM) [nM] | IC50 (second compound 0.316 µM) [nM] | IC50 (second compound 1 µM) [nM] | viability, T/C [1] [%] | viability, T/C [2] [%] | viability, T/C [3] [%] | viability, T/C [4] [%] | viability, T/C [5] [%] | viability, T/C [6] [%] | viability, T/C [7] [%] | viability, T/C [8] [%] | viability, T/C [9] [%] | viability, T/C [10] [%] | viability, T/C [11] [%] | viability, T/C [12] [%] | viability, T/C [13] [%] | viability, T/C [14] [%] | viability, T/C [15] [%] | further results |
| --- | --- | --- | --- | --- | --- | --- | --- | --- | --- | --- | --- | --- | --- | --- | --- | --- | --- | --- | --- | --- | --- |
| O=C(c1cc(Cc2n[nH]c(=O)c3ccccc23)ccc1F)N1CCN(C(=O)C2CC2)CC1 + CNC(C)C(=O)NC1CN(S(=O)(=O)c2cccc(S(=O)(=O)N3CCC4CCC(C(=O)NC(c5ccccc5)c5ccccc5)N4C(=O)C(NC(=O)C(C)NC)C3)c2)CCC2CCC(C(=O)NC(c3ccccc3)c3ccccc3)N2C1=O | > 10000 | > 10000 | > 10000 | > 10000 | > 10000 | 101 | 107 | 109 | 118 | 100 | 105 | 93.3 | 128 | 108 | 89.4 | 106 | 104 | 95 | 96.2 | 99.7 | viability, T/C (second compound 0.01 µM, first compound 3.16 µM): 104%; viability, T/C (second compound 0.01 µM, first compound 10 µM): 128%; viability, T/C (second compound 0.0316 µM, first compound 3.16 µM): 107%; viability, T/C (second compound 0.0316 µM, first compound 10 µM): 106%; viability, T/C (second compound 0.1 µM, first compound 3.16 µM): 105%; viability, T/C (second compound 0.1 µM, first compound 10 µM): 112%; viability, T/C [16]: 119%; viability, T/C (second compound 0.316 µM, first compound 3.16 µM): 114%; viability, T/C (second compound 0.316 µM, first compound 10 µM): 122%; viability, T/C [17]: 116%; viability, T/C [18]: 113%; viability, T/C [19]: 89.4%; viability, T/C [20]: 111%; viability, T/C (second compound 1 µM, first compound 3.16 µM): 103%; viability, T/C (second compound 1 µM, first compound 10 µM): 128% |
| O=C(c1ccc(F)c(F)c1Nc1ccc(I)cc1F)N1CC(O)([C@@H]2CCCCN2)C1 + CNC(C)C(=O)NC1CN(S(=O)(=O)c2cccc(S(=O)(=O)N3CCC4CCC(C(=O)NC(c5ccccc5)c5ccccc5)N4C(=O)C(NC(=O)C(C)NC)C3)c2)CCC2CCC(C(=O)NC(c3ccccc3)c3ccccc3)N2C1=O | > 1000 | 747 | 635 | 519 | 408 | 125 | 202 | 96.9 | 44.9 | 133 | 203 | 86.4 | 37.6 | 148 | 191 | 80 | 30.5 | 145 | 179 | 68.2 | viability, T/C (second compound 0.01 µM, first compound 0.00316 µM): 98.1%; viability, T/C (second compound 0.01 µM, first compound 0.01 µM): 103%; viability, T/C (second compound 0.0316 µM, first compound 0.00316 µM): 93.8%; viability, T/C (second compound 0.0316 µM, first compound 0.01 µM): 98.2%; viability, T/C (second compound 0.1 µM, first compound 0.00316 µM): 84.7%; viability, T/C (second compound 0.1 µM, first compound 0.01 µM): 91.3%; viability, T/C (second compound 0.316 µM, first compound 0.00316 µM): 115%; viability, T/C (second compound 0.316 µM, first compound 0.01 µM): 111%; viability, T/C [16]: 25.7%; viability, T/C (second compound 1 µM, first compound 0.00316 µM): 92.5%; viability, T/C (second compound 1 µM, first compound 0.01 µM): 110%; viability, T/C [17]: 121%; viability, T/C [18]: 158%; viability, T/C [19]: 58.1%; viability, T/C [20]: 21.4% |

Reference: PubChem BioAssay AID1963428 (Molecular Pharmacology Branch, DTP, NCI, 2024)
